Data taken from article PMC9032776, “Towards Selective Binding to the GLUT5 Transporter: Synthesis, Molecular Dynamics and In Vitro Evaluation of Novel C-3-Modified 2,5-Anhydro-D-mannitol Analogs” (Pharmaceutics, 2022).
Like-named read-outs stand apart in the source and are kept apart here.

Tests used:
[1] = target: T1, GLUT5 (Mus musculus, UniProt Q9WV38); conditions: cited from earlier work
T1 construct: GLUT5-expressing murine mammary carcinoma cancer cells (EMT6); endogenous in cells; host or cells: EMT6 murine mammary carcinoma cells
T1 sequence (Q9WV38 1-501): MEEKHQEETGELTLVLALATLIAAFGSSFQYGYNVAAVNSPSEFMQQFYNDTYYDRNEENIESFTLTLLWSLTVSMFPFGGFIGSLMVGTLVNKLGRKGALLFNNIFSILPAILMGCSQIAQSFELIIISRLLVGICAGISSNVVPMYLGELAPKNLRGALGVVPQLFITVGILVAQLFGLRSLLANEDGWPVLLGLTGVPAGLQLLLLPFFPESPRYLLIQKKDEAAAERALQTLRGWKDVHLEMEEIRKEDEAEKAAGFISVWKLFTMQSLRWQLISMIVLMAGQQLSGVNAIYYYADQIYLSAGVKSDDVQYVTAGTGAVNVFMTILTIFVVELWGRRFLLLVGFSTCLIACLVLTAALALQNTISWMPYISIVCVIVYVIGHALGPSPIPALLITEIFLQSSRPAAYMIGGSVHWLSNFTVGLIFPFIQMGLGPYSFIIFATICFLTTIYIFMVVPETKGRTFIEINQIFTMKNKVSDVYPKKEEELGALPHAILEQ

[2] = target: T1, GLUT5; experiment: In vitro inhibition of 6-[18F]FDF cell uptake (competition) in EMT6 cells; assay type: cell-based, murine; conditions: for IC50: 60 min incubation, glucose-free Krebs-Ringer buffer, mean ± SEM from n data points out of 2-4 experiments, read-out: IC50 (mM) against 6-[18F]FDF uptake into EMT6 cells; for Inhibition of 6-[18F]FDF uptake into EMT6 cells (in words): selected concentration range 10^-8-10^-3 and 3 x 10^-2 M; for Fold better inhibition of 6-[18F]FDF uptake relative to 6-FDF: compared with reference 6-FDF
Protocol: EMT6 cells were grown to confluence in 12-well cell culture plates with media renewal every 2 days. One hour prior to the experiment, cell culture media was removed and the plates were washed twice with glucose-free Krebs–Ringer buffer solution. To each well, 1 mL of glucose-free Krebs–Ringer buffer solution was added and incubation at 37 °C was continued for 1 h under the glucose-free condition. After one hour, Krebs–Ringer buffer was removed.
After 60 min incubation time, radiotracer uptake was stopped with 1 mL of ice-cold PBS, and the cells were washed twice with PBS and lysed in 0.4 mL radioimmunoprecipitation assay buffer (RIPA buffer). Radioactivity in the cell lysates was then determined as counts per minute (CPM) using a WIZARD2 automatic γ-counter (Perkin Elmer, Waltham, MA, USA) and converted to the radioactivity dose SI unit Becquerel (Bq). Data was analyzed as percentage of maximum uptake of 6-[^18F]FDF. Graphs were constructed using GraphPad Prism 5.0 (GraphPad Software, San Diego, CA, USA) and half-maximum inhibition concentrations (IC50) were determined by graphical analysis of the concentration-inhibition curves.
To analyze the interaction of these novel C-3-modified 2,5-anhydro-D-mannitol analogs with GLUT5, in vitro experiments were carried out in GLUT5-expressing murine mammary carcinoma cancer cells (EMT6) to determine how the varied substitution patterns would impact GLUT5 binding. Furthermore, fructose derivative 6-FDF was used as the reference compound as it was analyzed for its uptake profile through GLUT5 in the past. […] Therefore, when designing novel specific inhibitors for the GLUT5 transporter, it would be reasonable to expect their GLUT5 transport also in a millimolar concentration range, especially when using a radiometric assay that was established with radiolabeled fructose derivative 6-[^18F]FDF in murine EMT6 breast cancer cells and with inhibition by D-fructose and reference compound 6-FDF as internal controls.

[3] = Solubility in Krebs-Ringer buffer; assay type: physicochemical
[4] = test system: GLUT2; set-up: method as in PMID 29142019; conditions: murine EMT6 cells; read-out: IC50 against uptake of [18F]FDG; cited from earlier work
[5] = test system: GLUT5; conditions: read-out: Affinity (Km) of fructose transport through GLUT5; D-[14C]fructose; GLUT5 (human isoform)-expressing oocytes or brush-border membrane vesicles from rat and human intestine; cited from earlier work
[6] = test system: GLUT5; set-up: method as in PMID 27074918; conditions: proteoliposome GLUT5 expression system; read-out: IC50 against D-[14C]fructose; cited from earlier work
[7] = test system: GLUT5; set-up: method as in PMID 27074918; conditions: MCF7 human breast cancer cells; read-out: IC50 against D-[14C]fructose; cited from earlier work
[8] = target: GLUT5; conditions: human MCF7 breast cancer cells; cited from earlier work
[9] = test system: GLUT1; set-up: method as in PMID 18398011, PMID 9299540, PMID 15457374, doi:10.1002/bmb.2003.494031030227; conditions: cited from earlier work
[10] = test system: GLUT5; set-up: method as in PMID 26306809; conditions: read-out: IC50 against D-[14C]fructose; cited from earlier work

With `OC[C@H]1O[C@H](CF)[C@@H](O)[C@@H]1O` [1-FDAM, 1-deoxy-1-fluoro-2,5-anhydro-mannitol] as the molecule, how does the IC50 ([1]; estimated earlier by the authors, read-out: IC50 against the uptake of the probe 6-[18F]FDF) read?
The IC50 was roughly 20 mM.

With `O=C(CO)[C@@H](O)[C@H](O)[C@H](O)CF` [6-FDF, 6-deoxy-6-fluoro-D-fructose] as the molecule, how does the IC50 ([1]; murine EMT6 breast cancer cells, read-out: IC50 (half-maximum inhibition concentration) against 6-[18F]FDF uptake) read?
The IC50 was 19 mM.

And the IC50 [2]?
Its IC50 is 17 ± 0.75 mM.

With `O=S(=O)(N[C@H]1[C@H](O)[C@@H](CO)O[C@@H]1CO)c1ccc(F)cc1` [Compound 4, 3-deoxy-3-[N-(4-fluorobenzenesulfonamide)amino]-2,5-anhydro-D-mannitol] as the molecule, how does the IC50 [2] read?
Its IC50 is roughly 6 mM.

For `O=S(=O)(N[C@H]1[C@H](O)[C@@H](CO)O[C@@H]1CO)c1ccc(F)cc1C(F)(F)F` [Compound 5, 3-deoxy-3-[N-(4-fluoro-2-(trifluoromethyl)benzenesulfonamide)amino]-2,5-anhydro-D-mannitol], which “Inhibition of 6-[18F]FDF uptake into EMT6 cells (in words)” value (“Inhibition … (in words)” below) [2] is on record?
The value was “failed to inhibit 6-[^18F] FDF uptake transport at all”.

What does the source list for `CN(C)c1cccc2c(S(=O)(=O)N[C@H]3[C@H](O)[C@@H](CO)O[C@@H]3CO)cccc12` [Compound 6, 3-deoxy-3-[N-(5-(dimethylamino)naphthalene-1-sulfonamide)amino]-2,5-anhydro-D-mannitol]?
IC50 [2]: 2.29 ± 0.18 mM; Fold better inhibition of 6-[18F]FDF uptake relative to 6-FDF [2]: fivefold stronger inhibitory effect

With `OC[C@H]1O[C@H](CO)[C@@H](NC(=S)Nc2ccc(F)cc2)[C@@H]1O` [Compound 7, 3-deoxy-3-[N-(1-(4-fluorophenyl)thiourea)amino]-2,5-anhydro-D-mannitol] as the molecule, how does the “Inhibition … (in words)” value [2] read?
Its value is “no effect on 6-[^18F]FDF uptake”.

For `O=C(O)c1cc(NC(=S)N[C@H]2[C@H](O)[C@@H](CO)O[C@@H]2CO)ccc1-c1c2ccc(=O)cc-2oc2cc(O)ccc12` [Compound 8], which IC50 [2] is on record?
The IC50 was roughly 20 mM.

With `O=C(N[C@H]1[C@H](O)[C@@H](CO)O[C@@H]1CO)c1ccc(F)cc1` [Compound 9, 3-deoxy-3-[N-(4-fluorobenzamide)amino]-2,5-anhydro-D-mannitol] as the molecule, how does the “Inhibition … (in words)” value [2] read?
Its value is “no inhibitory activity in the selected concentration range”.

For `O=C(CO/N=C/c1ccc(F)cc1)N[C@H]1[C@H](O)[C@@H](CO)O[C@@H]1CO` [Compound 10, 3-deoxy-3-[N-(2-(((4-fluorobenzylidene)amino)oxy)acetamide)amino]-2,5-anhydro-D-mannitol], which “Fold better inhibition of 6-[18F]FDF uptake relative to 6-FDF” value [2] is on record?
Its value is ~ 10 fold.

Which IC50 [2] does the source give for `O=C(N[C@H]1[C@H](O)[C@@H](CO)O[C@@H]1CO)c1cc2ccc(OCCF)cc2oc1=O` [Compound 11, 3-deoxy-3-[N-(7-(2-fluoroethoxy)-2-oxo-2H-chromene-3-carboxamide)amino]-2,5-anhydro-D-mannitol] here?
Its IC50 is 1.71 ± 0.08 mM.

What about the “Fold better inhibition of 6-[18F]FDF uptake relative to 6-FDF” value [2] of the same molecule?
The value was ~ 10 fold.

What does the source list for `O=C(CO)[C@@H](O)[C@H](O)[C@H](O)CO` [Fructose, D-fructose]?
Solubility [3]: freely soluble; IC50 [4]: 80 mM; Km [5]: 11 to 15 mM

What does the source list for `CS(=O)(=O)c1ccc(Nc2ccc3c(c2)OCO3)c([N+](=O)[O-])c1` [MSNBA, N-(4-methanesulfonyl-2-nitrophenyl)-2H-1,3-benzodioxol-5-amine]?
IC50 [6]: 0.1 mM; IC50 [7]: 5.8 mM

Which results are given for `O=[N+]([O-])c1ccc(NC[C@H]2O[C@H](CO)[C@@H](O)[C@@H]2O)c2nonc12` [NBDM, 1-[N-(7-nitrobenz-2-oxa-1,3-diazole-4-yl)amino]-2,5-anhydro-D-mannitol]?
Ki [8]: 2.3 to 2.7 mM; Transport efficiency through GLUT5 relative to D-fructose [8]: transported twice as efficiently as D-fructose

With `OC[C@H]1OC(O)[C@H](O)[C@@H](O)[C@@H]1O` (stereo partly shown) [glucose] as the molecule, how does the “Affinity of glucose transport through GLUT1 (K4)” value [9] read?
Its value is 1 to 2 mM.

For `C=C1C[C@@]23CC[C@H]4[C@@](C)(CCC[C@@]4(C)C(=O)O[C@@H]4O[C@H](CO)[C@@H](O)[C@H](O)[C@H]4O)[C@@H]2CC[C@]1(O[C@@H]1O[C@H](CO)[C@@H](O)[C@H](O)[C@H]1O)C3` [rubusoside], which IC50 [10] is on record?
Its IC50 is 10.3 mM.
